Data reported in ChEMBL document CHEMBL5634084, “Design and optimization of selective and potent CDK9 inhibitors with flavonoid scaffold for the treatment of acute myeloid leukemia” (Eur J Med Chem, 2023).
pIC50: −log10 of the molar value. Values after ≈ are worked out from the molar mass of the structure shown. Blank lines part the entries; values can stand above or below the compound they belong to. Active and inactive are the calls of the source. The calls are words filed in the database; no cut-off is given here.

Assays:
[1] = biological target: CDK9/cyclin T1 (Homo sapiens) (UniProt O60563+P50750); experiment: Inhibition of CDK9/CyclinT1 (unknown origin) at 100 nM by ADP-Glo assay relative to control; format: protein-complex assay
MV4-11 [2] = experiment: Antiproliferative activity against human MV4-11 cells assessed as reduction in cell viability measured after 72 hrs; format: functional, cell-based; settings: MV4-11, 72 h
[3] = biological target: CDK2/Cyclin A2 (Homo sapiens) (UniProt P24941+P20248); experiment: Inhibition of CDK2/CyclinA2 (unknown origin) at 100 nM by ADP-Glo assay relative to control; format: protein-complex assay
HepG2 = experiment: Antiproliferative activity against human HepG2 cells assessed as reduction in cell viability measured after 72 hrs; format: functional, cell-based; settings: HepG2, 72 h
[4] = Solubility of the compound in water at pH 7.4; format: physicochemical
MV4-11 [5] = experiment: Antitumor activity against human MV4-11 cells xenografted in BALB/c mouse assessed as inhibition of tumor growth at 20 mg/kg, iv qd and measured every 2 days; format: functional; settings: MV4-11, 48 h, read-out: TGI
[6] = Metabolic stability of the compound in rat plasma at 10 uM measured for 60 mins by LC-MS/MS analysis; format: ADME, cell-free; settings: 1 h
MCF7 = experiment: Antiproliferative activity against human MCF7 cells assessed as reduction in cell viability measured after 72 hrs; format: functional, cell-based; settings: MCF7, 72 h
[7] = Metabolic stability of the compound in rat liver microsomes at 10 uM measured for 60 mins in presence of NADPH by LC-MS/MS analysis; format: ADME, Microsome; settings: 1 h
BT-549 = experiment: Antiproliferative activity against human BT-549 cells assessed as reduction in cell viability measured after 72 hrs; format: functional, cell-based; settings: BT-549, 72 h
[8] = Cytotoxicity against human L02 cells assessed as reduction in cell viability measured after 72 hrs; format: toxicity, cell-based
SW480 = experiment: Antiproliferative activity against human SW480 cells assessed as reduction in cell viability measured after 72 hrs; format: functional, cell-based; settings: SW480, 72 h
CDK6/cyclin D1 = CDK6/cyclin D1 (Homo sapiens, UniProt Q00534); experiment: Inhibition of CDK6/CyclinD1 (unknown origin) by ADP-Glo assay; format: protein-complex assay
[9] = Inhibition of CDK1/CyclinA2 (unknown origin) by ADP-Glo assay; parameters: species or system Homo sapiens
[10] = Metabolic stability of the compound in mouse liver microsomes at 10 uM measured for 60 mins in presence of NADPH by LC-MS/MS analysis; format: ADME, Microsome; settings: 1 h
[11] = Toxicity in BALB/c mouse xenografted with human MV4-11 cells assessed as effect on body weight at 10 to 20 mg/kg, iv qd; format: organism-based; settings: in vivo, dose 10-20 mg/kg
A549 = experiment: Antiproliferative activity against human A549 cells assessed as reduction in cell viability measured after 72 hrs; format: functional, cell-based; settings: A549, 72 h
HT-29 = experiment: Antiproliferative activity against human HT-29 cells assessed as reduction in cell viability measured after 72 hrs; format: functional, cell-based; settings: HT-29, 72 h
[12] = biological target: Cyclin-dependent kinase 4/cyclin D1 (Homo sapiens, UniProt P11802); experiment: Inhibition of CDK4/CyclinD1 (unknown origin) by ADP-Glo assay; format: protein-complex assay
[13] = Cytotoxicity against human HEK293 cells assessed as reduction in cell viability measured after 72 hrs; format: toxicity, cell-based
MOLM-13 = experiment: Antiproliferative activity against human MOLM-13 cells assessed as reduction in cell viability measured after 72 hrs; format: functional, cell-based; settings: MOLM-13, 72 h
THP-1 = experiment: Antiproliferative activity against human THP-1 cells assessed as reduction in cell viability measured after 72 hrs; format: functional, cell-based; settings: THP-1, 72 h
CDK7/Cyclin H/MNAT1 = CDK7/Cyclin H/MNAT1 (Homo sapiens, UniProt P50613); experiment: Inhibition of CDK7/Cyclin H/MAT1 (unknown origin) by ADP-Glo assay; format: protein-complex assay
HCT-116 = experiment: Antiproliferative activity against human HCT-116 cells assessed as reduction in cell viability measured after 72 hrs; format: functional, cell-based; settings: HCT-116, 72 h
[14] = Toxicity in BALB/c mouse xenografted with human MV4-11 cells assessed as animal's mortality at 10 to 20 mg/kg, iv qd; format: organism-based; settings: in vivo, dose 10-20 mg/kg
MV4-11 [15] = experiment: Antitumor activity against human MV4-11 cells xenografted in BALB/c mouse assessed as inhibition of tumor growth at 10 mg/kg, iv qd and measured every 2 days; format: functional; settings: MV4-11, 48 h, read-out: TGI
HL-60 = experiment: Antiproliferative activity against human HL-60 cells assessed as reduction in cell viability measured after 72 hrs; format: functional, cell-based; settings: HL-60, 72 h

Chain of Cyclin-dependent kinase 4/cyclin D1 (P11802 whole entry): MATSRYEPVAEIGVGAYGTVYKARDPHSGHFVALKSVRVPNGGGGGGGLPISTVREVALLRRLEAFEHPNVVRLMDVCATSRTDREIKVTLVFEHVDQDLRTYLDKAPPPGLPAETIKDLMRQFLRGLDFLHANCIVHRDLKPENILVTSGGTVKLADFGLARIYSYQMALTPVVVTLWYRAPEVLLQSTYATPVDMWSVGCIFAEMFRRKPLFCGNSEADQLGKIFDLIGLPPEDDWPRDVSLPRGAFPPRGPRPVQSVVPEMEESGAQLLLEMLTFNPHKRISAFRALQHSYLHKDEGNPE
Chain of Cyclin-dependent kinase 4/cyclin D1 (P24385 whole entry, further chain): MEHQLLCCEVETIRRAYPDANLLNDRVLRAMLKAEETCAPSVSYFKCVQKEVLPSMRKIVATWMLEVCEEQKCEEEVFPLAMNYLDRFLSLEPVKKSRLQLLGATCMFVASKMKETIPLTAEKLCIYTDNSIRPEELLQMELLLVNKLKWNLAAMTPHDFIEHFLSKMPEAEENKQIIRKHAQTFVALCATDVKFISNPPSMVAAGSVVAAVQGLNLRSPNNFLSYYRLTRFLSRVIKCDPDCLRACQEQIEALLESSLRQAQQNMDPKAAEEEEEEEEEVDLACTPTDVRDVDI
Chain of CDK6/cyclin D1 (P24385 whole entry): as the sequence (P24385 whole entry, further chain) above
Chain of CDK6/cyclin D1 (Q00534 whole entry): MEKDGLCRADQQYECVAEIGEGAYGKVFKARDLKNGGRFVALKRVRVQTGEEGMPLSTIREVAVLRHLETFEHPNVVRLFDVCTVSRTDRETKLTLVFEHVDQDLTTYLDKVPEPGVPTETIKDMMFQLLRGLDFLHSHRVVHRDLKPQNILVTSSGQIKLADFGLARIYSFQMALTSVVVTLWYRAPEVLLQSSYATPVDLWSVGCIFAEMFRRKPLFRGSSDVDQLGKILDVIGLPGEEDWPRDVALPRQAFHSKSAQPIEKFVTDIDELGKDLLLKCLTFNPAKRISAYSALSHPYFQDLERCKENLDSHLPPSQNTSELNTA
Chain of CDK7/Cyclin H/MNAT1 (P51946 whole entry): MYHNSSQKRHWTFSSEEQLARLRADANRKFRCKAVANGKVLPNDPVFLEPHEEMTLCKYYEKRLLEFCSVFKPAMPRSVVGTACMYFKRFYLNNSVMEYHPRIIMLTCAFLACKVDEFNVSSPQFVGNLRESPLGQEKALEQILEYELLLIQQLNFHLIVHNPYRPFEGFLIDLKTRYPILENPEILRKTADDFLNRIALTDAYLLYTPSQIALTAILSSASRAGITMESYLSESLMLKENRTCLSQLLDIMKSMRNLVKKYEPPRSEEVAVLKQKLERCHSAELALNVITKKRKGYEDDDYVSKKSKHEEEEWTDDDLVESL
Chain of CDK7/Cyclin H/MNAT1 (P50613 whole entry): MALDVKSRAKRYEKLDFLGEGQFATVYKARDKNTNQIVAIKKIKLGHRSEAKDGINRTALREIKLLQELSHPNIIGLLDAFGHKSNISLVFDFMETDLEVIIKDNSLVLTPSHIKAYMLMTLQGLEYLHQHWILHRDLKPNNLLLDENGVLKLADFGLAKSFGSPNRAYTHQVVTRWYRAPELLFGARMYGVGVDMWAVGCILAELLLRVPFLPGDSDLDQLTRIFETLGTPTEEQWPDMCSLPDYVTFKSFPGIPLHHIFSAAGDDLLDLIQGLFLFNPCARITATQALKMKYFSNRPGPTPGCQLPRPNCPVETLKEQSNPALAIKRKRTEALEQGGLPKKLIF
Chain of CDK7/Cyclin H/MNAT1 (P51948 whole entry, further chain): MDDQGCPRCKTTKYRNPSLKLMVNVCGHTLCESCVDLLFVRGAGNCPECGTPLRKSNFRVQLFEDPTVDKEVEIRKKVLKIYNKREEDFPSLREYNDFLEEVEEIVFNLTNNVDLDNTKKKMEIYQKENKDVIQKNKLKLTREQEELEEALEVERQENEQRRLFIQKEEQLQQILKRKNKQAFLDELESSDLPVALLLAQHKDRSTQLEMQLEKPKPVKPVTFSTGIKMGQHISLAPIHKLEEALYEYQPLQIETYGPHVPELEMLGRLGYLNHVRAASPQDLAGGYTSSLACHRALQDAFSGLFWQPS

SMILES: COc1cc(O)c2c(=O)cc(-c3ccc(N4CCCNCC4)cc3)oc2c1C1=CCN(C)CC1
inhibition [1]: 99% | pIC50 (MV4-11 [2]): 6.82 | inhibition [3]: 32.5%

SMILES: COc1cc(O)c2c(=O)cc(-c3ccc(N4CCNCC4)cc3)oc2c1N1CCNCC1
inhibition [1]: 70.8% | pIC50 (MV4-11 [2]): 7.00 | inhibition [3]: inactive

SMILES: COc1cc(O)c2c(=O)cc(-c3ccc(N4CCNCC4)cc3)oc2c1C1=CCN(C)CC1
inhibition [1]: 98.6% | pIC50 (MV4-11 [2]): 6.89 | inhibition [3]: inactive

SMILES: COc1cc(O)c2c(=O)cc(-c3ccc(N4CCOCC4)cc3)oc2c1N1CCNCC1
inhibition [1]: 74.4% | pIC50 (MV4-11 [2]): 6.77 | inhibition [3]: 17.5%

SMILES: COc1cc(O)c2c(=O)cc(-c3ccc(N4CCC(N5CCOCC5)CC4)cc3)oc2c1N1CCNCC1
inhibition [1]: 78% | pIC50 (MV4-11 [2]): 6.51 | inhibition [3]: 4.7%

SMILES: COc1cc(O)c2c(=O)cc(-c3ccc(N4CCC(N5CCOCC5)CC4)cc3)oc2c1C1=CCN(C)CC1
inhibition [1]: 90.9% | pIC50 (MV4-11 [2]): 6.48 | inhibition [3]: 29%

SMILES: COc1cc(O)c2c(=O)cc(-c3ccc(N4CCCNCC4)cc3)oc2c1N1CCNCC1
inhibition [1]: 78% | pIC50 (MV4-11 [2]): 6.68 | inhibition [3]: 18.9%

SMILES: COc1cc(O)c2c(=O)cc(-c3ccc(N4CCN(C)CC4)cc3)oc2c1N1CCNCC1
pIC50 (HepG2): 5.75 | solubility [4]: 0.45 mg/mL (≈ 999 µM) | inhibition in vivo at 20 mg/kg (MV4-11 [5]): 61% | Stability [6]: Stable | pIC50 (MCF7): 5.82 | Stability [7]: Stable | inhibition [1]: 75% | pIC50 (BT-549): 5.73 | IC50 at 72 h [8]: 17.7 µM | pIC50 (SW480): 6.00 | pIC50 (CDK6/cyclin D1): 5.65 | pIC50 [9]: 5.75 | Stability [10]: Stable | Activity [11]: Non-Toxic | pIC50 (MV4-11 [2]): 7.10 | pIC50 (A549): 5.94 | pIC50 (HT-29): 6.06 | pIC50 [12]: 6.51 | IC50 at 72 h [13]: 25.5 µM | inhibition [3]: 8.3% | pIC50 (MOLM-13): 5.95 | pIC50 (THP-1): 5.37 | pIC50 (CDK7/Cyclin H/MNAT1): 5.34 | pIC50 (HCT-116): 6.16 | Activity [14]: Non-Toxic | inhibition in vivo at 10 mg/kg (MV4-11 [15]): 48% | pIC50 (HL-60): 6.92

The remaining lines, values ahead:

inhibition [1]: 75.8% | pIC50 (MV4-11 [2]): 7.00 | inhibition [3]: 23.5%
SMILES: COc1cc(O)c2c(=O)cc(-c3ccc(N4CCN(C)CC4)cc3)oc2c1N1CCN(C)CC1

inhibition [1]: 47.5% | pIC50 (MV4-11 [2]): 5.91 | inhibition [3]: inactive
SMILES: COc1cc(O)c2c(=O)cc(-c3ccc(N4CCN(C)CC4)cc3)oc2c1N1CCCCC1

inhibition [1]: 64.9% | pIC50 (MV4-11 [2]): 6.74 | inhibition [3]: 5.4%
SMILES: COc1cc(O)c2c(=O)cc(-c3ccc(N4CCN(C)CC4)cc3)oc2c1[C@H]1CCN(C)C[C@H]1O

inhibition [1]: 79.6% | pIC50 (MV4-11 [2]): 6.77 | inhibition [3]: 4.7%
SMILES: COc1cc(O)c2c(=O)cc(-c3ccc(N4CCCC4)cc3)oc2c1N1CCNCC1

inhibition [1]: 70% | pIC50 (MV4-11 [2]): 6.68 | inhibition [3]: 24.5%
SMILES: COc1cc(O)c2c(=O)cc(-c3ccc(N4CCN(C)CC4)cc3)oc2c1N1CCC(N2CCOCC2)CC1

inhibition [1]: 1.4% | pIC50 (MV4-11 [2]): 7.15 | inhibition [3]: inactive
SMILES: COc1cc(O)c2c(=O)cc(-c3ccc(N4CCN(C)CC4)cc3)oc2c1[C@H]1CCN(C)[C@@H]1CO

inhibition [1]: 5.1% | pIC50 (MV4-11 [2]): 5.69 | inhibition [3]: inactive
SMILES: COc1cc(O)c2c(=O)cc(-c3ccc(N4CCN(C)CC4)cc3)oc2c1

inhibition [1]: 17.6% | pIC50 (MV4-11 [2]): 7.15 | inhibition [3]: inactive
SMILES: COc1cc(O)c2c(=O)cc(-c3ccc(N4CCN(C)CC4)cc3)oc2c1N1CCCC1

inhibition [1]: 44.4% | pIC50 (MV4-11 [2]): 6.96 | inhibition [3]: inactive
SMILES: COc1cc(O)c2c(=O)cc(-c3ccc(N4CCN(C)CC4)cc3)oc2c1N1CCOCC1

inhibition [1]: 75.8% | pIC50 (MV4-11 [2]): 5.69 | inhibition [3]: 14.2%
SMILES: COc1cc(O)c2c(=O)cc(-c3ccc(N4CCN(C)CC4)cc3)oc2c1Oc1c(C)n[nH]c1C
